Data from patent US20250152585A1, “PHARMACEUTICAL COMPOUND” (Duke Street Bio Limited, priority 2022, published 2025).
pIC50, pKd: −log10 of the molar value. Where two headings read alike, the source gives them in different places.

Columns and labels:
PARP1 = target: T1, PARP1 (Homo sapiens, UniProt P09874); experiment: NanoBRET cellular target occupancy assay, PARP1; type: cell-based; details: for pKd: HEK293 cells transiently transfected with PARP1-NanoLuc fusion, tracer 11 nM, 2 hours at 37° C., Kd by Cheng-Prussoff; for Selectivity: NanoBRET, PARP1 over PARP2, Kd (PARP2)/Kd (PARP1)
T1 construct: host or cells: HEK293
T1 sequence (P09874 whole entry, the tested form may be a part): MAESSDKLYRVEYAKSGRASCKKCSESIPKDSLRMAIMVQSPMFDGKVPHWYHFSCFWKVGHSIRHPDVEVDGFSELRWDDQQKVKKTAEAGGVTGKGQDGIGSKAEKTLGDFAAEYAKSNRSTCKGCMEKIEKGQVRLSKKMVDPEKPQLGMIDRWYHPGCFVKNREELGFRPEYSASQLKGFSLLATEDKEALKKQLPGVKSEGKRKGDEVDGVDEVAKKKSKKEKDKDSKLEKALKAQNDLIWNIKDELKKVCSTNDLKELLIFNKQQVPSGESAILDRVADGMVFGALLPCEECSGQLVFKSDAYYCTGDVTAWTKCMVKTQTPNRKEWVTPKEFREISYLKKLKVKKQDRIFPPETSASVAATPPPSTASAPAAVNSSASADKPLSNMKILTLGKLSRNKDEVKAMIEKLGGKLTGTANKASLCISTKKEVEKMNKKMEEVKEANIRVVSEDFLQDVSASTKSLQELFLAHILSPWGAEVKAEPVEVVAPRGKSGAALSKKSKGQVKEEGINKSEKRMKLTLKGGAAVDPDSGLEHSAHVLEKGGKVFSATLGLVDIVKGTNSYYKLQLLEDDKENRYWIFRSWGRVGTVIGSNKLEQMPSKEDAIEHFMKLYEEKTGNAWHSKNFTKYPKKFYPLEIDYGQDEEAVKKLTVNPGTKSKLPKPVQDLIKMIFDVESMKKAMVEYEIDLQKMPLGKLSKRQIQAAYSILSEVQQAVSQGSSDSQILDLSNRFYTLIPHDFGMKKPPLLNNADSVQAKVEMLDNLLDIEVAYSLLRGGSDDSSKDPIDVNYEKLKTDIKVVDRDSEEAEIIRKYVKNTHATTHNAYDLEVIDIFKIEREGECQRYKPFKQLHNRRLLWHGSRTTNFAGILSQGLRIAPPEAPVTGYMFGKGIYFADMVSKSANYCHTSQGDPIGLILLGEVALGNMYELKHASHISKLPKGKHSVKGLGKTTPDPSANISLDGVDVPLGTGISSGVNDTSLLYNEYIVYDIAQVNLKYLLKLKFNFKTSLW

[1] = target: T2, full length N-terminally FLAG-tagged PARP1 (Homo sapiens, UniProt P09874); experiment: PARP1 biochemical DELFIA assay (auto-PARylation); parameters: recombinant full length human N-terminally FLAG-tagged PARP1
T2 sequence (P09874 whole entry): as the sequence (P09874 whole entry, the tested form may be a part) above

[2] = target: T2, full length N-terminally FLAG-tagged PARP1; experiment: PARP1 probe displacement HTRF assay; details: for Selectivity: PARP1 over PARP2, ratio Kd (PARP2)/Kd (PARP1); for pKd: binned Kd
[3] = target: T3, N-terminally FLAG-tagged PARP2 (amino acids 1-583) (Homo sapiens, UniProt Q9UGN5); experiment: PARP2 probe displacement HTRF assay; type: binding; details: binned Kd
T3 construct: N-terminally FLAG-tagged PARP2 (amino acids 1-583)
T3 sequence (Q9UGN5 whole entry, the tested form may be a part): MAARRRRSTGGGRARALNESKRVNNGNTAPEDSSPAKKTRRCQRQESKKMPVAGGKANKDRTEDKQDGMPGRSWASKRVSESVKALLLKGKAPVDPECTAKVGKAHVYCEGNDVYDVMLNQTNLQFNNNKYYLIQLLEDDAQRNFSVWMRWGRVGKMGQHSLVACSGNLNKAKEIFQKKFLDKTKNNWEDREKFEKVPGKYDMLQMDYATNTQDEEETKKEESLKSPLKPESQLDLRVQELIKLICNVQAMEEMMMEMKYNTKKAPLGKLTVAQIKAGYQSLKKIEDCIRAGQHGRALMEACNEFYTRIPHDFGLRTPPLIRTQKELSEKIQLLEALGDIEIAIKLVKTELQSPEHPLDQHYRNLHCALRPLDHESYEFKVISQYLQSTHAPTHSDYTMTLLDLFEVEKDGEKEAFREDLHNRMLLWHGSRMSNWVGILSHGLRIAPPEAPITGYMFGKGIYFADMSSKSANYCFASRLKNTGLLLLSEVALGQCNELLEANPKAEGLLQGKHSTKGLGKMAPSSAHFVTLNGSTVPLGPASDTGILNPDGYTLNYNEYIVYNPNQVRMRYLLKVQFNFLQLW
Experimental: Data analysis was performed identical as for PARP1.

PARP2 = target: T4, PARP2 (Homo sapiens, UniProt Q9UGN5); experiment: NanoBRET cellular target occupancy assay, PARP2; type: cell-based; details: HEK293 cells transiently transfected with PARP2-NanoLuc fusion; tracer 2 nM; 2 hours at 37° C.; Kd by Cheng-Prussoff
T4 construct: host or cells: HEK293
T4 sequence (Q9UGN5 whole entry, the tested form may be a part): as above
Excerpt: NanoBRET Cellular Target Occupancy Assay

[4] = binned IC50, PARP1 biochemical DELFIA assay
[5] = read-out: PARP1 HTRF, PARP1 probe displacement HTRF
[6] = binned IC50, biochemical auto-PARylation assay
[7] = read-out: PARP1 HTRF, probe displacement HTRF
[8] = PARP1 HTRF, probe displacement HTRF

Structure (SMILES) | pKd (PARP1) | Selectivity (PARP1) | pIC50 [1, 4] | Selectivity ([2]; probe displacement HTRF) | pKd [2, 5] | pKd ([3]; PARP2 probe displacement HTRF) | pKd (PARP2) | pIC50 [1, 6] | pKd [2, 7] | pKd ([3]; probe displacement HTRF) | pKd [2, 8]
CCc1ccc(C2CCN(C3CCN(c4ccc(C(=O)NC)nc4Cl)CC3)C2)[nH]c1=O (racemic) [Compound 144rac] | > 8.00 | +++ (+++ indicate a value of at least 100) | > 8.00 | +++ (+++ indicate a value of at least 100) | > 8.00 | 5.00 to 6.00 | < 5.00 |  |  |  | 
CNC(=O)c1ccc(N2CCC(N3CCC(c4cc5c(F)ccc(F)c5c(=O)[nH]4)C3)CC2)cn1 (single isomer, unassigned) [Compound 180b] | > 8.00 | +++ (+++ indicate a value of at least 100) | > 8.00 | ++ (++ indicates a value of 50 to less than 100) | > 8.00 | 7.00 to 8.00 | 6.00 to 7.00 |  |  |  | 
CNC(=O)c1ccc(N2CCC(N3CCC(c4cc5ccc(F)cc5c(=O)[nH]4)C3)CC2)c(Cl)n1 (single isomer, unassigned) [Compound 223b] | > 8.00 | +++ (+++ indicate a value of at least 100) |  | +++ (+++ indicate a value of at least 100) |  |  | 6.00 to 7.00 | > 8.00 | > 8.00 | 6.00 to 7.00 | 
CNC(=O)c1ccc(N2CCC(N3CCC(c4cc5ccc(Cl)cc5c(=O)[nH]4)C3)CC2)cn1 (single isomer, unassigned) [Compound 129b] | > 8.00 | +++ (+++ indicate a value of at least 100) | > 8.00 | +++ (+++ indicate a value of at least 100) | > 8.00 | 7.00 to 8.00 | 6.00 to 7.00 |  |  |  | 
CNC(=O)c1ccc(N2CCC(N3CCC(c4nc5ccccc5c(=O)[nH]4)C3)CC2)cn1 (single isomer, unassigned) [Compound 10b, N-methyl-5-(4-(3-(4-oxo-3,4-dihydroquinazolin-2-yl)pyrrolidin-1-yl)piperidin-1-yl)picolinamide] | > 8.00 | +++ (+++ indicate a value of at least 100) | > 8.00 | +++ (+++ indicate a value of at least 100) | > 8.00 | 6.00 to 7.00 | 5.00 to 6.00 |  |  |  | 
N#Cc1ccc(N2CCC(N3CCC(c4cc5cccc(F)c5c(=O)[nH]4)C3)CC2)cn1 (single isomer, unassigned) [Compound 316a] | > 8.00 | +++ (+++ indicate a value of at least 100) |  | +++ (+++ indicate a value of at least 100) |  |  | 6.00 to 7.00 | > 8.00 | > 8.00 | 6.00 to 7.00 | 
CNC(=O)c1ccc(N2CCC(N3CCC(c4[nH]c(=O)c5ccccc5c4F)C3)CC2)cn1 (racemic) [Compound 258rac] | > 8.00 | +++ (+++ indicate a value of at least 100) |  | +++ (+++ indicate a value of at least 100) |  |  | 6.00 to 7.00 | > 8.00 | > 8.00 | 6.00 to 7.00 | 
CCc1cnc(C23CC(C2)N(C2CCN(c4ccc(C(=O)NC)nc4F)CC2)C3)[nH]c1=O [Compound 300] | > 8.00 | +++ (+++ indicate a value of at least 100) |  | +++ (+++ indicate a value of at least 100) |  |  | < 5.00 | > 8.00 |  | 5.00 to 6.00 | > 8.00
CNC(=O)c1ccc(N2CCC(N3CCC(c4cc5c(c(=O)[nH]4)CCCC5)C3)CC2)c(F)n1 (single isomer, unassigned) [Compound 337a, 6-fluoro-N-methyl-5-(4-(3-(1-oxo-1,2,5,6,7,8-hexahydroisoquinolin-3-yl)pyrrolidin-1-yl)piperidin-1-yl)picolinamide] | > 8.00 | +++ (+++ indicate a value of at least 100) |  | +++ (+++ indicate a value of at least 100) |  |  | 5.00 to 6.00 | > 8.00 |  | 6.00 to 7.00 | > 8.00
